Experimental data reported in patent publication US4956179A, “Antibacterial combination of penicillin and cephalosporin” (priority 1971, dated 1990).

How the values were obtained:
Format in all cases: cell-based
[1] = tested on: clinically isolated coliform bacterium (No. 9/70); assay: M.I.C., serial dilution test (Example 2); conditions: coliform No. 9/70; penicillin alone, II alone, 1:1 combination
Protocol: (§1) The in vitro activity of 6-(D-α-aminophenylacetamido) penicillanic acid (I), 6-[(hexahydro-1H-azepin-1-yl)methyleneamino]penicillanic acid (II) and of a combination (III) of equal parts of the two compounds against clinically isolated enterobacteria was determined in a serial dilution test. Tryptose phosphate broth, containing the appropriate concentrations of the compounds or of the combination of them, was inoculated with 0.5×10^4 -5×10^4 organisms of the various micro-organisms tested and incubated overnight at 37° C. Minimum inhibitory concentrations (M.I.C.) were taken as the concentrations of the compounds or of the combination at which no visible growth occurred.
Using the same technique as described in Example 1 the in vitro-activity of 6-[(hexahydro-1H-azepin-1-yl)methyleneamino]penicillanic acid (II), of various penicillins and of 1:1-combinations of II with the respective penicillin was determined against a clinically isolated coliform bacterium (No. 9/70).

[2] = tested on: clinically isolated strain of Proteus (Proteus Mirabilis I 190); assay: M.I.C., serial dilution test (Example 11); conditions: cephalosporin alone, II alone, 1:1 combination
Protocol: as §1
Using the same technique as described in Example 1 the in vitro activity of 6-[(hexahydro-1H-azepin-1-yl)methyleneamino]penicillanic acid (II), of various cephalosporins and of 1:1 combinations of II with these cephalosporins was determined against a clinically isolated strain of Proteus (Proteus Mirabilis I 190).

[3] = tested on: clinically isolated strain of Klebsiella-Enterobacter (strain 4/71); assay: M.I.C., serial dilution test (Example 10); conditions: cephalosporin alone, II alone, 1:1 combination
Protocol: as §1
Using the same technique as described in Example 1 the in vitro activity of 6-[(hexahydro-1H-azepin-1-yl)methyleneamino]penicillanic acid (II), of various cephalosporins previously mentioned in this specification, and of 1:1 combinations of II with these cephalosporins was determined against a clinically isolated strain of Klebsiella-Enterobacter (strain 4/71)

[4] = tested on: Klebsiella-Enterobacter strain 7; assay: MIC, serial dilution test (Example 9); conditions: 1:2 and 2:1 given as I + VII concentrations
Protocol: as §1
(§2) Using the technique described in Example 1 the in vitro effect of combinations of 6-(D-α-aminophenylacetamido)-penicillanic acid (I) and 6-[(N,N-diethylformamidino)-N'-amino]penicillanic acid (VII) in the ratios 1:1, 1:2 and 2:1 against clinically isolated strains of Coliforma, Klebsiella-Enterobacter and Proteus was determined in serial dilution tests.

[5] = tested on: Coliforma strain 4; assay: MIC, serial dilution test (Example 9); conditions: 1:2 and 2:1 given as I + VII concentrations
Protocol: as §1, §2

[6] = tested on: Proteus strain 9; assay: MIC, serial dilution test (Example 9); conditions: 1:2 and 2:1 given as I + VII concentrations
Protocol: as §1, §2

[7] = tested on: Klebsiella-Enterobacter strain 5; assay: MIC, serial dilution test (Example 9); conditions: 1:2 and 2:1 given as I + VII concentrations
Protocol: (§3) Tryptose phosphate broth, containing the appropriate concentrations of the compounds or of the combination of them, was inoculated with 0.5×10^4 -5×10^4 organisms of the various micro-organisms tested and incubated overnight at 37° C. Minimum inhibitory concentrations (M.I.C.) were taken as the concentrations of the compounds or of the combination at which no visible growth occurred.

[8] = tested on: Klebsiella-Enterobacter strain 1; assay: MIC, serial dilution test (Example 9); conditions: 1:2 and 2:1 given as I + VII concentrations
Protocol: as §3

[9] = tested on: clinically isolated coliform; assay: Emergence of resistance, subculturing by serial twofold broth dilution (Example 7); conditions: I + II 1:1
Protocol: The strain used was a clinically isolated coliform. As inocula were used bacteria from the tube with the highest concentration of compound still permitting visible growth to the naked eye after incubation at 37° C. overnight.

[10] = tested on: Proteus 10/70; assay: M.I.C., serial dilution test (Example 4); conditions: Proteus strain 10/70; V = equal parts I and IV
Protocol: as §1

[11] = tested on: Proteus 4/70; assay: M.I.C., serial dilution test (Example 4); conditions: Proteus strain 4/70; V = equal parts I and IV
Protocol: as §1

[12] = tested on: Coliform 16/70; assay: M.I.C., serial dilution test (Example 4); conditions: Coliform strain 16/70; V = equal parts I and IV
Protocol: as §1

[13] = tested on: Klebsiella-Enterobacter. 5/70; assay: M.I.C., serial dilution test (Example 4); conditions: Klebsiella-Enterobacter. strain 5/70; V = equal parts I and IV
Protocol: as §1

[14] = tested on: Proteus 7/70; assay: M.I.C., serial dilution test (Example 4); conditions: Proteus strain 7/70; V = equal parts I and IV
Protocol: as §1

[15] = tested on: Klebsiella-Enterobacter. 1/70; assay: M.I.C., serial dilution test (Example 4); conditions: Klebsiella-Enterobacter. strain 1/70; V = equal parts I and IV
Protocol: as §1

[16] = tested on: Coliform 7/70; assay: M.I.C., serial dilution test (Example 4); conditions: Coliform strain 7/70; V = equal parts I and IV
Protocol: as §1

[17] = tested on: Klebsiella-Enterobacter. 9/70; assay: M.I.C., serial dilution test (Example 4); conditions: Klebsiella-Enterobacter. strain 9/70; V = equal parts I and IV
Protocol: as §1

[18] = tested on: Klebsiella-Enterobacter. 10/70; assay: M.I.C., serial dilution test (Example 4); conditions: Klebsiella-Enterobacter. strain 10/70; V = equal parts I and IV
Protocol: as §1

[19] = tested on: Coliform 14/70; assay: M.I.C., serial dilution test (Example 4); conditions: Coliform strain 14/70; V = equal parts I and IV
Protocol: as §1

[20] = tested on: Proteus 9/70; assay: M.I.C., serial dilution test (Example 4); conditions: Proteus strain 9/70; V = equal parts I and IV
Protocol: as §1

[21] = tested on: Klebsiella-Enterobacter. 7/70; assay: M.I.C., serial dilution test (Example 4); conditions: Klebsiella-Enterobacter. strain 7/70; V = equal parts I and IV
Protocol: as §1

[22] = tested on: Klebsiella-Enterobacter. 431; assay: M.I.C., serial dilution test (Example 4); conditions: Klebsiella-Enterobacter. strain 431; V = equal parts I and IV
Protocol: as §1

[23] = tested on: Proteus 12/70; assay: M.I.C., serial dilution test in tryptose phosphate broth (Example 1); conditions: Proteus strain 12/70; overnight at 37° C; III = equal parts I and II
Protocol: as §1

[24] = tested on: Proteus vulgaris B; assay: as above; conditions: overnight at 37° C, III = equal parts I and II
Protocol: as §1

[25] = tested on: Coliform 10/70; assay: as above; conditions: Coliform strain 10/70; overnight at 37° C; III = equal parts I and II
Protocol: as §1

[26] = tested on: Coliform 3/70; assay: as above; conditions: Coliform strain 3/70; overnight at 37° C; III = equal parts I and II
Protocol: as §1

[27] = tested on: Proteus 13/70; assay: as above; conditions: Proteus strain 13/70; overnight at 37° C; III = equal parts I and II
Protocol: as §1

[28] = tested on: Proteus 20/70; assay: as above; conditions: Proteus strain 20/70; overnight at 37° C; III = equal parts I and II
Protocol: as §1

[29] = tested on: Coliform 9/70; assay: as above; conditions: Coliform strain 9/70; overnight at 37° C; III = equal parts I and II
Protocol: as §1

[30] = tested on: E.coli III; assay: Emergence of resistance, subculturing by serial twofold broth dilution (Example 6); conditions: passage 2; I + IV 1:1
Protocol: Subculturing using a serial twofold broth dilution technique was performed with 6-(D-α-amino-phenylacetamido)-penicillanic acid (I), 6-[(piperidyl-1)methyleneamino]penicillanic acid (IV) and a 1:1 combination of I+IV. As inocula were used bacteria from the tube with the highest concentration of compound still permitting visible growth to the naked eye after incubation at 37° C. overnight. The following increases in MIC-values were noted.

[31] = tested on: Klebsiella-Enterobacter strain 5; assay: MIC, serial dilution test (Example 8); conditions: VI + VII equal parts
Protocol: as §3

[32] = tested on: Coliforma strain 3; assay: MIC, serial dilution test (Example 8); conditions: VI + VII equal parts
Protocol: as §1
(§4) Using the technique described in Example 1 the in vitro activity of cephalotin (VI) and 6-[(N,N-diethylformamidino)-N'-amino]penicillanic acid (VII) and of a combination of equal parts of the compounds against clinically isolated strains of Coliforma and Klebsiella-Enterobacter was determined in serial dilution tests.

[33] = tested on: Coliforma strain 14; assay: MIC, serial dilution test (Example 8); conditions: VI + VII equal parts
Protocol: as §1, §4

[34] = tested on: Coliforma strain 7; assay: MIC, serial dilution test (Example 8); conditions: VI + VII equal parts
Protocol: as §1, §4

CC1(C)S[C@@H]2[C@H](NC(=O)[C@H](N=[N+]=[N-])c3ccccc3)C(=O)N2[C@H]1C(=O)O [6-(D-α-azidophenylacetamido)penicillanic acid] showed a M.I.C. [1] of 50 µg/mL.

Work on [N-]=[N+]=NCC1=C(C(=O)O)N2C(=O)C(NC(=O)Cc3cccs3)C2SC1 (centres unmarked) [EPC 821/4II] yielded a M.I.C. [2] of 12.5 µg/mL and a M.I.C. [3] of 100 µg/mL.

Compound CC1(C)S[C@@H]2[C@H](NC(=O)[C@H](N)c3ccccc3)C(=O)N2[C@H]1C(=O)O [I, 6-(D-α-aminophenylacetamido)penicillanic acid] has an MIC [4] greater than 100 µg/mL, an MIC [5] of 3.12 µg/mL and an MIC [6] of 3.12 µg/mL. The MIC [7] was 100 µg/mL, the MIC [8] was 50 µg/mL and the MIC ([9]; passage 1) was 3,12 μg/ml. It also gave a M.I.C. [10] of 1.56 µg/mL, a M.I.C. [11] of 1.56 µg/mL and a M.I.C. [12] of 3.12 µg/mL. For the same compound, the M.I.C. [13] was 100 µg/mL, the M.I.C. [14] was 1.56 µg/mL and the M.I.C. [15] was 50 µg/mL. For the same compound, the M.I.C. [16] was 3.12 µg/mL, the M.I.C. [17] was 50 µg/mL and the M.I.C. [18] was 50 µg/mL. It also gave a M.I.C. [19] of 6.25 µg/mL, a M.I.C. [20] of 6.25 µg/mL and a M.I.C. [21] greater than 100 µg/mL. The M.I.C. [22] was 100 µg/mL, the M.I.C. [23] was 100 µg/mL and the M.I.C. [24] was 50 µg/mL. For the same compound, the M.I.C. [25] was 3.12 µg/mL, the M.I.C. [26] was 1.56 µg/mL and the M.I.C. [27] was 100 µg/mL. The M.I.C. [28] was greater than 100 µg/mL.

Work on CC1(C)S[C@@H]2[C@H](N=CN3CCCCCC3)C(=O)N2[C@H]1C(=O)O [II, 6-[(hexahydro-1H-azepin-1-yl)methyleneamino]penicillanic acid] yielded a M.I.C. [2] of 100 µg/mL, an MIC ([9]; passage 0) of 0.39 µg/mL and an MIC ([9]; passage 1) of 6.25 µg/mL. The MIC ([9]; passage 2) was 25 µg/mL, the MIC ([9]; passage 3) was 25 µg/mL and the MIC ([9]; passage 4) was 25 µg/mL. The MIC ([9]; passage 5) was 25 µg/mL, the MIC ([9]; passage 7) was 25 µg/mL and the MIC ([9]; passage 8) was 25 µg/mL. It also gave a M.I.C. [26] of 12.5 µg/mL and a M.I.C. [29] of 3.12 µg/mL.

CC1(C)S[C@@H]2[C@H](N=CN3CCCCC3)C(=O)N2[C@H]1C(=O)O [IV, 6-[(piperidyl-1)-methyleneamino]penicillanic acid] was tested, and the M.I.C. [12] was 1.56 µg/mL, the M.I.C. [16] was 1.56 µg/mL and the M.I.C. [19] was 3.12 µg/mL. The MIC [30] was 6.25 µg/mL.

In the case of CC(=O)OCC1=C(C(=O)O)N2C(=O)[C@@H](NC(=O)Cc3cccs3)[C@H]2SC1 [VI, cephalotin], the MIC [31] is reported as 25 µg/mL, the M.I.C. [2] is reported as 3.12 µg/mL and the M.I.C. [3] is reported as 50 µg/mL. It also gave an MIC [32] of 6.25 µg/mL, an MIC [33] of 12.5 µg/mL and an MIC [34] of 12.5 µg/mL.

With CCN(C=N[C@@H]1C(=O)N2[C@@H]1SC(C)(C)[C@@H]2C(=O)O)CC [VII, 6-[(N,N-diethylformamidino)-N'-amino]penicillanic acid] the MIC [4] was greater than 100 µg/mL, the MIC [5] was 3.12 µg/mL and the MIC [6] was 100 µg/mL. For the same compound, the MIC [31] was greater than 100 µg/mL, the MIC [7] was greater than 100 µg/mL and the MIC [8] was greater than 100 µg/mL. It also gave an MIC [32] of 6.25 µg/mL and an MIC [33] of 12.5 µg/mL.

Compound CC1(C)S[C@@H]2[C@H](NC(=O)Cc3ccccc3)C(=O)N2[C@H]1C(=O)O [benzylpenicillin] has a M.I.C. [1] of 25 µg/mL.

CC1(C)S[C@@H]2[C@H](NC(=O)C(C(=O)O)c3ccccc3)C(=O)N2[C@H]1C(=O)O (stereo partly drawn) [α-carboxybenzylpenicillin] gave a M.I.C. [1] of 12.5 µg/mL.
